Measurements published in patent US11110098B2, “Methods and medicaments for the treatment of renal cell carcinoma” (University of Kansas, priority 2017, dated 2021).

How the values were obtained:
Caki-1 cells [1] = test: Immunostaining of xenograft tumor sections (Ki-67, BRDU, CD31); format: in vivo, Nu/Nu mice; settings: OPC31260 IP, tolvaptan 120 mg/Kg oral, dDAVP 1 μg/Kg IP, daily 28 days
Method: (§1) Female Athymic Nude-Foxn1^nu mice (Nu/Nu mice), 7-8 weeks old and weighing ˜25 g were procured from Envigo/Harlan. All animal studies were carried out according to the protocols approved by the University of Kansas Medical Center Institutional Animal Care and Use Committee. Mice were subcutaneously injected on the right flank region with 1×10^6 Caki-1 cells in 100 μl of DMEM medium. One week after injection, palpable tumors appeared and tumor volume was measured with calipers following the formula, […]. Once the tumor volume reached ˜80-100 mm^3, mice were randomized into sub-groups based on the tumor volume. Animals were administered vehicle, OPC31260 (30 mg/Kg BWt.), OPC31260 (60 mg/Kg BWt) or dDAVP (1 μg/Kg BWt.) and vehicle (saline) by daily intraperitoneal injection, or tolvaptan (120 mg/Kg BWt. in 1% aqueous solution of hydroxypropyl methylcellulose-dose derived from previous study^31) or vehicle by daily oral gavage for 28 days. Body weights and tumor volumes were measured every alternate day. At the end of the study, mice were injected with BRDU (100 mg/Kg BWt. by IP) 90 minutes before sacrifice. Tumors were harvested, photographed and weighed. Tumors were flash frozen or paraffin embedded for further analysis.
Tumor tissues were fixed overnight in 4% paraformaldehyde, dehydrated in a graded alcohol series, and embedded in paraffin for histological analysis as previously described^26. Slides with 5 μm tissue sections were heated in a steamer for 20 min in citrate buffer (pH 6.0) to unmask antigens. Slides were further blocked with 10% goat serum (Invitrogen) and then incubated overnight with primary antibody (V2R, CD31, BRDU, Ki67 and p-H3). After washing the slides with PBST, slides were incubated with appropriate fluorescence-labeled secondary antibody (Invitrogen) and streptavidin HRP conjugated (Invitrogen) secondary antibody for immunoflurorescence and immunohistochemistry, respectively. Slides were also incubated in 4′,6-diamidino-2-phenylindole to visualize nuclei. For immunofluorescence staining, slides were mounted with Fluoromount G (Southern Biotech). For immunohistochemistry, slides were developed with DAB (Vector Laboratories) and counterstained with Harris haematoxylin, dehydrated, and mounted with Permount (Fisher Scientific, Waltham, Mass.). All images were captured using a Nikon 80i microscope (Tokyo, Japan) at the KUMC Imaging Center.

Caki-1 cells [2] = test: Annexin V-FITC/PI apoptosis/necrosis, Caki-1 cells; format: cell-based, human; settings: 24 h
Method: (§2) Annexin V-FITC/PI staining was performed for quantification of apoptosis and necrotic cell death using FITC AnnexinV apoptosis detection kit I. Green FITC dye stains apoptotic cells whereas propidium iodide stains necrotic cells with red fluorescence. RCC cells were incubated with OPC31260 for 24 h and washed in cold PBS and resuspended in calcium containing binding buffer (10 mM HEPES, 140 mM NaCl, 5 mM CaCl2; pH 7.4) at a concentration of 1×10^6 cells/ml and stained for 15 min, with 5 μl Annexin V-FITC and 5 μl PI at 1 μg/ml (Cell signaling kit, USA). 10,000 cells were analyzed at an excitation wavelength of 488 nm and emission wavelengths of 530 nm for FITC fluorescence and 610 nm for PI fluorescence. The percentages of viable (Annexin V−PI−), early apoptotic (Annexin V+PI−), late apoptotic/necrotic (Annexin V+PI+) and necrotic cells (Annexin V-PI+) were evaluated with the CellQuestPro® software (Becton, Dickinson, Heidelberg, Germany).

[3] = format: in vivo; settings: OPC31260 30 and 60 mg/Kg, daily intraperitoneal, 28 days
Method: as §1

786-O cells = test: Annexin V-FITC/PI apoptosis/necrosis, 786-O cells; format: cell-based, human; settings: 24 h
Method: as §2

Caki-1 cells [4] = test: Clonogenic assay, Caki-1 cells; format: cell-based, human; settings: 48 h treatment, 10 days growth
Method: 786-O and Caki-1 cells were plated at very low density (1,000 cells/well) in six-well plates. After 16 h, cells were treated with different doses of OPC31260 and incubated for 48 h. Cells were washed and grown for 10 days until visible colonies formed. Colonies were fixed with 4% paraformaldehyde in PBS, stained with 0.25% crystal violet in 25% methanol, washed, air-dried and photographed. Crystal violet was dissolved in sodium citrate buffer (0.1M, 50% ethanol, pH 4.2) and absorbance was recorded at 590 nm.

Caki-1 cells [5] = test: TUNEL assay for apoptosis in xenograft tumor sections; format: in vivo, Nu/Nu mice; settings: OPC31260 IP, tolvaptan 120 mg/Kg oral, dDAVP 1 μg/Kg IP, daily 28 days
Method: as §1
TUNEL assays were performed to check apoptosis using the in situ Cell Death Detection Kit (Roche Applied Science, Indianapolis, Ind.). Briefly, slides with 5-μm tumor sections were treated to a TUNEL reaction mixture containing terminal deoxynucleotidyl transferase and nucleotides, including tetramethylrhodamine-labeled dUTP. Both Dapi stained and TUNEL-positive nuclei were counted as described for proliferating cell nuclear antigen. All images were captured using a Nikon 80i microscope (Tokyo, Japan) in the KUMC Imaging Center.

CCRCC = test: Immunocompetent animal model of spontaneous CCRCC; format: in vivo, Vh1Δ/ΔTrp53Δ/ΔRb1Δ/Δ mice; settings: treatment from 30 weeks after start of tamoxifen till 56 weeks
Description: The Vh1^Δ/ΔTrp53^Δ/ΔRb1^Δ/Δ mice (Harlander S et al, Nat Med 2017 23(7):869-877) can spontaneously develop CCRCC. Gene deletion of Vhl and tumor suppressors p53 and Rb 1 will be achieved using a Ksp1.3-CreERT2, tamoxifen-inducible system. For the studies, 6-week old Vh1^Δ/ΔTrp53^Δ/ΔRb1^Δ/ΔKsp1.3-CreERT2 mice will be treated with vehicle (saline) or tamoxifen for 14 days used to obtain wildtype control mice and Vh1^Δ/ΔTrp53^Δ/ΔRb1^Δ/Δ mice with RCC stumors. Starting 30 weeks after start of tamoxifen, the wildtype and Vh1^Δ/ΔTrp53^Δ/ΔRb1^Δ/Δ mice will be treated with vehicle, dDAVP, OPC31260, or tolvaptan till 56 weeks. The effect of V2R activation or inhibition will be monitored by MRI as well as by gross and pathological analysis and of kidneys at sacrifice.

Caki-1 cells [6] = test: Cell cycle analysis (propidium iodide, FACS), Caki-1 cells; format: cell-based, human; settings: 24 h, 10 μM or higher doses
Method: 786-O and Caki-1 cells were incubated for 24 h with 0, 1, 5, 10, 25 or 50 μM of OPC31260, and stained with propidium iodide for analysis by flow cytometry. Cells were rinsed with PBS and trypsinized, and washed twice with PBS. Single-cell suspensions were fixed using pre-chilled 70% ethanol overnight, and subsequently permeabilized with PBS containing 0.1% Triton X-100, 1 mg/ml propidium iodide (Sigma-Aldrich) and 2 mg/ml DNase-free RNase at room temperature. Flow cytometry was done with a FACS Calibur analyzer (Becton Dickinson, Mountain, View, Calif.), capturing 10,000 events for each sample. Results were analyzed with ModFit LT™ software (Verity Software House, Topsham, Me.).

With Cc1ccccc1C(=O)Nc1ccc(C(=O)N2CCCC(N(C)C)c3ccccc32)cc1 (centres unmarked) [OPC31260, 5-(dimethylamino)-1-[4-(2-methylbenzamido)benzoyl]-2,3,4,5-tetrahydro-1H-benzazepine] the “BRDU staining / incorporation of tumors compared to vehicle” value (Caki-1 cells [1]) was “significantly reduced”, the “Ki-67 staining of tumors compared to vehicle” value (Caki-1 cells [1]) was “significantly reduced” and the “tumor micro-vessel density (CD31 staining)” value (Caki-1 cells [1]) was “significantly reduced”. For the same molecule, the apoptosis (Caki-1 cells [2]) was “increase in apoptosis”, the “body weight of the mice” value [3] was “did not significantly change” and the urine osmolality [3] was “reduced urine osmolality in a dose dependent manner”. For the same molecule, the apoptosis (786-O cells) was “increase in apoptosis”, the “dose from which a significant decline in colony formation was observed” value (Caki-1 cells [4]) was 10 µM and the “TUNEL staining of tumors compared to vehicle” value (Caki-1 cells [5]) was “increased”. The “expected tumor burden / tumor growth” value (CCRCC) was “significantly suppress tumor growth” and the “cells in G2/M phase” value (Caki-1 cells [6]) was 60-70%.
